Patent publication US10125134B2 (Mirati Therapeutics, Inc., priority 2016, dated 2018)
Where a name gives a salt, the structure may show the parent alone. Read-outs that look alike come from different tables or passages of the source.

Assays:
[1] = test system: NCI-H358 cells (express KRas G12C), Phospho-ERK; experiment: Cellular inhibition of KRas G12C: Phospho-ERK in NCI-H358 cells; format: cell-based; conditions: pERK(Thr202/Tyr204) normalized with GAPDH, NCI-H358 cells, 3 hours, read-out: IC50
Outline: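 IC50 derived by 4-parameter fit of GAPDH-normalized pERK(Thr202/Tyr204) signal, as percent of DMSO control. Signal came from in-cell immunodetection with infrared secondaries after 3 h compound exposure of KRas G12C NCI-H358 cells at 0.5% DMSO.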

KRas G12C = KRas G12C (Homo sapiens, UniProt P01116, C118S/C51S/C80L/G12C); experiment: KRas G12C Modification Assay (LCMS detection of covalent adduct); format: binding; conditions: normalized percent of control; tested at 5 μM concentration for 3 hours
Outline: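 Covalent modification was read by reverse-phase LC/MS of intact protein after compound exposure, each reaction stopped at its time point with 25 mM acetic acid. Unmodified-protein signal, taken as percent of total, was normalised to untreated protein and reported as POC.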

SMILES | POC (KRas G12C) | IC50 ([1]; Homo sapiens, NCI-H358, 3 h) | IC50 [1] | IC50 ([1]; Homo sapiens)
C=CC(=O)N1CCN(c2nc(OCc3ncc[nH]3)nc3c2CCN(c2cccc4ccccc24)C3)C[C@@H]1CC#N [Example 351, 2-[(2S)-4-[2-(1H-imidazol-2-ylmethoxy)-7-(1-naphthyl) -6,8-dihydro-5H-pyrido[3,4-d]pyrimidin-4-yl]-1-prop-2-enoyl-piperazin-2-yl]acetonitrile] | C (“C”>50% POC) | 0.1 to 1000 nM | – | –
C=CC(=O)N1CCN(c2nc(OC[C@@H]3CCCN3C(C)C)nc3c2CCN(c2cccc4ccccc24)C3)C[C@@H]1CC#N [Example 320, 2-[(2S)-4-[2-[[(2S)-1-isopropylpyrrolidin-2-yl]methoxy]-7-(1-naphthyl)-6,8-dihydro-5H-pyrido[3,4-d]pyrimidin-4-yl]-1-prop-2-enoyl-piperazin-2-yl]acetonitrile] | C (“C”>50% POC) | 0.1 to 1000 nM | – | –
C=CC(=O)N1CCN(c2nc(OC[C@@H]3CCCN3C)nc3c2CCN(c2cncc4ccccc24)C3)CC1CC#N (stereo partly drawn) [Example 291, 2-[4-[7-(4-isoquinolyl)-2-[[(2S)-1-methylpyrrolidin-2-yl]methoxy]-6,8-dihydro-5H-pyrido[3,4-d]pyrimidin-4-yl]-1-prop-2-enoyl-piperazin-2-yl]acetonitrile] | C (“C”>50% POC) | – | 0.1 to 1000 nM | –
CC(C)=CC(=O)N1CCN(c2nc(OC[C@@H]3CCCN3C)nc3c2CCN(c2cccc4ccccc24)C3)CC1CC#N (stereo partly drawn) [Example 282, 2-(1-(3-methylbut-2-enoyl)-4-(2-(((S)-1-methylpyrrolidin-2-yl)methoxy)-7-(naphthalen-1-yl)-5,6,7,8-tetrahydropyrido[3,4-d]pyrimidin-4-yl)piperazin-2-yl)acetonitrile] | A (“A”≤25% POC) | > 1000 nM | – | –
C=CC(=O)N1CCN(c2nc(OC[C@@H]3CCCN3C)nc3c2CCN(c2cccc4ccncc24)C3)C[C@@H]1CC#N [Example 429, 2-((S)-1-acryloyl-4-(7-(isoquinolin-8-yl)-2-(((S)-1-methylpyrrolidin-2-yl)methoxy)-5,6,7,8-tetrahydropyrido[3,4-d]pyrimidin-4-yl)piperazin-2-yl)acetonitrile] | C (“C”>50% POC) | 0.1 to 1000 nM | – | –
C=CC(=O)N1CCN(c2nc(OC[C@H]3C[C@H](O)CN3C)nc3c2CCN(c2cccc(F)c2C(F)(F)F)C3)CC1CC#N (stereo partly drawn) [Example 414, 2-(1-acryloyl-4-(7-(3-fluoro-2-(trifluoromethyl)phenyl)-2-(((2R,4S)-4-hydroxy-1-methylpyrrolidin-2-yl)methoxy)-5,6,7,8-tetrahydropyrido[3,4-d]pyrimidin-4-yl)piperazin-2-yl)acetonitrile] | C (“C”>50% POC) | 0.1 to 1000 nM | – | –
C=CC(=O)N1CCN(c2nc(OC[C@@H]3CCCN3C)nc3c2CCN(c2c(C(F)(F)F)ccc4[nH]ncc24)C3)CC1 [Example 156, (S)-1-(4-(2-((1-methylpyrrolidin-2-yl)methoxy)-7-(5-(trifluoromethyl)-1H-indazol-4-yl)-5,6,7,8-tetrahydropyrido[3,4-d]pyrimidin-4-yl)piperazin-1-yl)prop-2-en-1-one] | C (“C”>50% POC) | 0.1 to 1000 nM | – | –
C=CC(=O)N1CCN(c2nc(OC[C@@H]3CCCN3C)nc3c2CCN(c2cccc(Cl)c2C(F)(F)F)C3)CC1CC#N (stereo partly drawn) [Example 413, 2-(1-acryloyl-4-(7-(3-chloro-2-(trifluoromethyl)phenyl)-2-(((S)-1-methylpyrrolidin-2-yl)methoxy)-5,6,7,8-tetrahydropyrido[3,4-d]pyrimidin-4-yl)piperazin-2-yl)acetonitrile] | C (“C”>50% POC) | – | 0.1 to 1000 nM | –
C=CC(=O)N1CCN(c2nc(OC[C@@H]3CCCN3C)nc3c2CCN(c2c(F)c(O)cc4ccccc24)C3)CC1 [Example 249, 1-[4-[7-(2-fluoro-3-hydroxy-1-naphthyl)-2-[[(2S)-1-methylpyrrolidin-2-yl]methoxy]-6,8-dihydro-5H-pyrido[3,4-d]pyrimidin-4-yl]piperazin-1-yl]prop-2-en-1-one] | C (“C”>50% POC) | – | – | 0.1 to 1000 nM
C=CC(=O)N1CCN(c2nc(OC[C@@H]3CCCN3C)nc3c2CCN(c2cccc(Cl)c2C)C3)C[C@@H]1CC#N [Example 419, 2-((S)-1-acryloyl-4-(7-(3-chloro-2-methylphenyl)-2-(((S)-1-methylpyrrolidin-2-yl)methoxy)-5,6,7,8-tetrahydropyrido[3,4-d]pyrimidin-4-yl)piperazin-2-yl)acetonitrile] | C (“C”>50% POC) | 0.1 to 1000 nM | – | –
C=CC(=O)N1CCN(c2nc(O[C@H](C)CN(C)C)nc3c2CCN(c2cccc4ccccc24)C3)CC1CC#N (stereo partly drawn) [Example 151, 2-(1-acryloyl-4-(2-(((R)-1-(dimethylamino)propan-2-yl)oxy)-7-(naphthalen-1-yl)-5,6,7,8-tetrahydropyrido[3,4-d]pyrimidin-4-yl)piperazin-2-yl)acetonitrile] | B (“B”>25% POC−≤50% POC) | > 1000 nM | – | –
C=CC(=O)N1CCN(c2nc(OC[C@@H]3CCCN3C)nc3c2CCN(c2cccc(Cl)c2Cl)C3)C[C@@H]1CC#N [Example 420, 2-((S)-1-acryloyl-4-(7-(2,3-dichlorophenyl)-2-(((S)-1-methylpyrrolidin-2-yl)methoxy)-5,6,7,8-tetrahydropyrido[3,4-d]pyrimidin-4-yl)piperazin-2-yl)acetonitrile] | C (“C”>50% POC) | 0.1 to 1000 nM | – | –

The next lines start with results.

POC (KRas G12C) | SMILES | IC50 ([1]; Homo sapiens, NCI-H358, 3 h) | IC50 [1] | IC50 ([1]; Homo sapiens)
C (“C”>50% POC) | C=CC(=O)N1CCN(c2nc(OCCN3CCC(C#N)CC3)nc3c2CCN(c2cc(O)cc4ccccc24)C3)CC1 [Example 81, 1-(2-((4-(4-acryloylpiperazin-1-yl)-7-(3-hydroxynaphthalen-1-yl)-5,6,7,8-tetrahydropyrido[3,4-d]pyrimidin-2-yl)oxy)ethyl)piperidine-4-carbonitrile] | > 1000 nM | – | –
C (“C”>50% POC) | C=CC(=O)N1CCN(c2nc(OCCCN3CCN(C)CC3)nc3c2CCN(c2cc(O)cc4ccccc24)C3)CC1 [Example 82, 1-(4-(7-(3-hydroxynaphthalen-1-yl)-2-(3-(4-methylpiperazin-1-yl)propoxy)-5,6,7,8-tetrahydropyrido[3,4-d]pyrimidin-4-yl)piperazin-1-yl)prop-2-en-1-one] | 0.1 to 1000 nM | – | –
C (“C”>50% POC) | C=CC(=O)N1CCN(c2nc(OC[C@H](O)CN3CCOCC3)nc3c2CCN(c2cc(O)cc4ccccc24)C3)CC1 (single isomer, unassigned) [Example 215] | > 1000 nM | – | –
C (“C”>50% POC) | C/C=C/C(=O)N1CCN(c2nc(OC[C@@H]3CCCN3C)nc3c2CCN(c2cc(O)cc4ccccc24)C3)CC1 [Example 198, (S,E)-1-(4-(7-(3-hydroxynaphthalen-1-yl)-2-((1-methylpyrrolidin-2-yl)methoxy)-5,6,7,8-tetrahydropyrido[3,4-d]pyrimidin-4-yl)piperazin-1-yl)but-2-en-1-one] | > 1000 nM | – | –
B (“B”>25% POC−≤50% POC) | C=CC(=O)N1CCN(c2nc(OCCN3CCS(=O)(=O)CC3)nc3c2CCN(c2cc(O)cc4ccccc24)C3)CC1 [Example 33, 1-(4-(2-(2-(1,1-dioxidothiomorpholino)ethoxy)-7-(3-hydroxynaphthalen-1-yl)-5,6,7,8-tetrahydropyrido[3,4-d]pyrimidin-4-yl)piperazin-1-yl)prop-2-en-1-one trifluoroacetate] | > 1000 nM | – | –
C (“C”>50% POC) | C=CC(=O)N1CCN(c2nc(OC[C@@H](O)CN3CCOCC3)nc3c2CCN(c2cc(O)cc4ccccc24)C3)CC1 (single isomer, unassigned) [Example 216] | > 1000 nM | – | –
C (“C”>50% POC) | C=CC(=O)N1CCN(c2nc(OC[C@@H]3CCCCN3C)nc3c2CCN(c2cc(O)cc4ccccc24)C3)CC1 [Example 196, (S)-1-(4-(7-(3-hydroxynaphthalen-1-yl)-2-((1-methylpiperidin-2-yl)methoxy)-5,6,7,8-tetrahydropyrido[3,4-d]pyrimidin-4-yl)piperazin-1-yl)prop-2-en-1-one] | 0.1 to 1000 nM | – | –
C (“C”>50% POC) | C=CC(=O)N1CCN(c2nc(O[C@@H](C)[C@@H]3CCCN3C)nc3c2CCN(c2cc(O)cc4ccccc24)C3)CC1 [Example 130, 1-(4-(7-(3-hydroxynaphthalen-1-yl)-2-((S)-1-((S)-1-methylpyrrolidin-2-yl)ethoxy)-5,6,7,8-tetrahydropyrido[3,4-d]pyrimidin-4-yl)piperazin-1-yl)prop-2-en-1-one] | 0.1 to 1000 nM | – | –
A (“A”≤25% POC) | C=CC(=O)N1CCN(c2nc(N3CCOCC3)nc3c2CCN(c2cc(O)cc4ccccc24)C3)CC1 [Example 118, 1-(4-(7-(3-hydroxynaphthalen-1-yl)-2-morpholino-5,6,7,8-tetrahydropyrido[3,4-d]pyrimidin-4-yl)piperazin-1-yl)prop-2-en-1-one] | > 1000 nM | – | –
C (“C”>50% POC) | C=CC(=O)N1CCN(c2nc(OC[C@@H]3CCCN3C)nc3c2CCN(c2cccc4ccccc24)C3)C(C)(C)C1 [Example 354, 1-[3,3-dimethyl-4-[2-[[(2S)-1-methylpyrrolidin-2-yl]methoxy]-7-(1-naphthyl)-6,8-dihydro-5H-pyrido[3,4-d]pyrimidin-4-yl]piperazin-1-yl]prop-2-en-1-one] | > 1000 nM | – | –
A (“A”≤25% POC) | C=CC(=O)N1CCN(c2ncnc3c2CCN(c2cccc4ccccc24)C3)CC1 [Example 3, 1-(4-(7-(naphthalen-1-yl)-5,6,7,8-tetrahydropyrido[3,4-d]pyrimidin-4-yl)piperazin-1-yl)prop-2-en-1-one] | > 1000 nM | – | –
